Laboratory results: patent publication US11459586B2, “Methods for increasing efficiency of nuclease-mediated gene editing in stem cells” (President and Fellows of Harvard College, priority 2016, dated 2022)

System: human iPSC
Assay: mThy1 gene targeting in hiPSC lentivirally overexpressing anti-apoptotic genes (EGFP+ vs EGFP- subsets)
Assay type: cell-based
Conditions: lentiviral overexpression
Description: FIGS. 3A-D. Overexpression of anti-apoptotic factors increases gene targeting rates in human iPSC, both for HR-mediated gene replacement and NHEJ-mediated gene excision. FIG. 3A. Mouse Thy1 gene targeting scheme. Two Crispr sgRNAs target human THY1 either within intron 1 (Left) or after the polyadenylation site (Right). The mouse Thy1 targeting vector plasmid contains mThy1 coding exons 2 and 3, flanked by hThy1 homology arms outside the sgRNA sites—coding exon 1 (which encodes the signal peptide) is retained but the sgRNA sites are disrupted. FIG. 3B. Plain human iPSC were infected with lentivirus that constitutively expresses EGFP together with an anti-apoptotic gene separated by an IRES. Three days after infection, each culture was nucleofected with plasmids encoding the mThy1 targeting vector, Cas9 nuclease, and Thy1 Left, Right, both, or no sgRNAs (pUC19). Five days later, cells were analyzed by flow cytometry. FIG. 3C. Representative FACS plots gated on live single cells: iPSC from each transfected culture were gated based on EGFP expression and the percentage of cells within those subsets that have gained mThy1 expression and/or lost hThy1 expression are indicated. […]
Subsequently, we determined whether rescue by these anti-apoptotic genes would result in higher gene editing frequencies in hiPSC. […]

Bcl-2: B cell lymphoma 2 protein, anti-apoptotic, overexpressed from lentivirus or Cas9 plasmid
frequency of NHEJ-mediated hThy1 homozygous gene deletions (both Thy1 sgRNAs): increased | frequency of HR-mediated mThy1 homozygous gene replacements (one sgRNA): dramatic increase
